Results as given in patent US20200247808A1, “Heterocyclic Tec-Family Kinase Inhibitors” (GB005, Inc., priority 2015, published 2020).
pEC50: −log10 of the molar value. Entries after “also recorded” stand apart in the source; their conditions may differ. Read-outs that look alike come from different tables or passages of the source.

Key:
[1] = Mouse plasma pharmacokinetics; format: in vivo, mouse (CD-1); conditions: male, CD-1, mouse, mice; for AUC / Cmax: free base; for bioavailability: oral 10 mg/kg vs intravenous 3 mg/kg
Experimental: Plasma pharmacokinetic studies were conducted in CD1 mice to compare the plasma exposure following oral and intravenous administration of the free-base form of each compound to mice and to calculate bioavailability. Male CD-1 mice (25-30 g on delivery; Charles River) were used for mouse PK studies. The mice were housed 3 per cage in a room under controlled conditions of temperature ([…]) and humidity (40-70%), with a 12 h dark/light cycle. The animals were acclimated for a minimum of 3 days prior to use and received standard rodent chow (Charles River) and municipal tap water ad libitum. Nine animals were used per study, they were dosed PO or IV and bled from the mandibular vein, 2 to 3 times per animal at the following time points; pre dose, 15 and 30 min, 1, 2, 3, 5, 7 and 24 h (0.1 mL whole blood /time point; composite PK). Blood was collected into microvette K3E tubes ([…]) at RT and then centrifuged at 5,000 RPM for 2 min at 4° C. in order to separate plasma. Isolated plasma (0.015 mL/time point) was pipetted into 96 well plates (Canadian Life Science) which were stored at minus 20° C. until analysis (2 duplicate plates per study).
Concentrations of compound in rodent plasma samples were determined by LC-MS-MS. Two standard curves containing 8 points each were prepared by spiking in methanol or plasma with a solution containing the test article at a defined concentration. The range of final compound concentration in the standard curve was 0 to 1 μg/mL. Three sets of quality control (QC) samples in plasma at low, medium and high concentration within the standard curve range were also prepared. For analysis, the compound was extracted using protein precipitation extraction procedure. Briefly, a three-fold volume of methanol containing an internal standard was added to the plasma and standard curve solution samples and then incubated at 4° C. for 5 minutes. The plates were centrifuged for 30 minutes at 4° C. at 4000 rpm and the resulting supernatant was transferred to a 96-well propylene plates and sealed with cover to avoid sample evaporation. Ten μL aliquots of extracted samples were injected using a 96-well plate autosampler held at 4° C. onto a ACE C18 50×4.6 mm, 3 um HPLC column held at 30° C. Plasma derived parent compound was eluted using the following conditions: pump flow rate was set at 1 mL/min for a five minutes chromatographic method using a 3 min gradient elution from 20% solvent A (0.1% formic acid in water) and 80% solvent B (0.1% Formic Acid in Methanol) to 10% solvent A and 90% solvent B. The method was followed by 1 min column wash at 95% solvent B and 1 min column re-equilibration back to 80% solvent B. Under these conditions the compound was eluted after 1.8 minutes. For LC-MS-MS compound detection, the curtain gas was set at 10, collision gas was set at 8, ion spray voltage was set at 4500, temperature was set at 500, ion source gas 1 was set at 40 and ion source gas 2 was set at 60. Using a positive ionization mode, the MRM transition monitored was set at […]. Under these conditions, standard curves were linear up to 2000 ng/mL, the lower limit of quantification was generally at 10 ng/mL.
The area under the curve (AUCtot and AUClast), the maximum plasma concentration (Cmax) and time (Tmax), and terminal half life (T1/2), clearance and volume of distribution were calculated by regression analysis using Kinetica version 5.0 (Thermo Fisher Scientific) using a Non-Compartmental Extravascular/IV Bolus analysis model.

[2] = system: collagen-induced arthritis; assay: Mouse CIA (collagen-induced arthritis) model; format: in vivo, mouse (B10RIII); conditions: mice, oral gavage 10 and 30 mg/kg, BID, to RA day 12
Experimental: Mouse CIA model was performed using the methods described by Trentham D E, Townes A S, Kang A H. Autoimmunity to Type II Collagen: An Experimental Model of Arthritis. J Exp Med 1977; 857-868, and Bendele A M. Animal Models of Rheumatoid Arthritis. J Musculoskel Interact 2001; 377-385.
[…]. On experimental day 0 mice were anaesthetized with isoflurane and the dorsal surface was shaved. Collagen, emulsified in Freund's complete adjuvant (CFA) supplemented with additional mycobacterium tuberculosis (TB) H37Ra, was injected intradermally at the base of the tail (0.15 mL / animal; 2 mg/mL collagen and 2.5 mg/mL TB in CFA). This CFA treatment was repeated on day 15.
From day 15 to the end of the study animals were scored daily for signs of arthritis. On the first day of disease (RA Day 1) animals were recruited to the study and grouped using a balanced design based on arthritis score. Once recruited, animals were weighed and dosed twice daily by gavage (PO, BID). Recruited animals were then scored twice a week on RA days 1, 5, 8 and 12.
At the end of the study (RA day 12) animals were weighed and scored.

[3] = system: splenocytes; assay: Splenic cell proliferation assay (anti-IgM stimulated, Cell Titer-Glo); format: cell-based, mouse (CD1); conditions: Splenocyte; mouse splenocytes, 2.5 μg/ml anti-IgM F(ab')2, 72 h; read-out: Spleen cell EC50
Experimental: Proliferation of splenocytes in response to anti-IgM can be blocked by inhibition of BTK. Splenocytes were obtained from 6 week old male CD1 mice (Charles River Laboratories Inc.). Mouse spleens were manually disrupted in PBS and filtered using a 70um cell strainer followed by ammonium chloride red blood cell lysis. Cells were washed, resuspended in Splenocyte Medium (HyClone RPMI supplemented with 10% heat-inactivated FBS, 0.5X non-essential amino acids, 10 mM HEPES, 50 μM beta mercaptoethanol) and incubated at 37° C., 5% CO2 for 2h to remove adherent cells. Suspension cells were seeded in 96 well plates at 50,000 cells per well and incubated at 37° C., 5% CO2 for 1h. Splenocytes were pre-treated in triplicate with 10,000 nM curves of Formula 1 compounds for 1h, followed by stimulation of cell proliferation with 2.5 μg/ml anti-IgM
F(ab′)2 (Jackson ImmunoResearch) for 72 h. Cell proliferation was measured by Cell Titer-Glo Luminescent Assay (Promega). EC50 values (50% proliferation in the presence of compound as compared to vehicle treated controls) were calculated from dose response compound curves using GraphPad Prism Software.

[4] = intravenous 3 mg/kg, read-out: Intravenous AUC
[5] = oral 10 mg/kg, read-out: Oral AUC

SMILES: CC#CC(=O)N[C@H]1C[C@@H](n2nc(-c3ccc(Oc4ccccc4)cc3)c3c(N)ncnc32)C1 [Compound 1]
- AUC [1, 4]: 841 ng·h/mL
- bioavailability [1]: 52%
- Cmax ([1]; oral 10 mg/kg): 1280 ng/mL
- AUC [1, 5]: 1450 ng·h/mL
- Effect on arthritis in mouse CIA model [2]: prevented the progression of arthritis; also recorded: effective in the mouse collagen-induced arthritis model
- pEC50 [3]: 9.70

SMILES: C=CC(=O)N[C@H]1C[C@@H](n2nc(-c3ccc(Oc4ccccc4)cc3)c3c(N)ncnc32)C1 [Compound 2]
- AUC [1, 4]: 954 ng·h/mL
- bioavailability [1]: 45%
- Cmax ([1]; oral 10 mg/kg): 1350 ng/mL
- AUC [1, 5]: 1440 ng·h/mL
- Effect on arthritis in mouse CIA model [2]: prevented the progression of arthritis; also recorded: effective in the mouse collagen-induced arthritis model
- pEC50 [3]: 9.52
